ChEMBL document CHEMBL1156829 (Proc Natl Acad Sci U S A, 2008)

What was measured:
[1] = test system: Plasmodium falciparum; test: NOVARTIS: Inhibition of Plasmodium falciparum 3D7 (drug-susceptible) proliferation in erythrocyte-based infection assay; assay type: functional, organism-based; settings: Plasmodium falciparum, 3D7
[2] = test system: Plasmodium falciparum; test: NOVARTIS: Inhibition of Plasmodium falciparum W2 (drug-resistant) proliferation in erythrocyte-based infection assay; assay type: functional, organism-based; settings: Plasmodium falciparum, W2; read-out: EC50
[3] = NOVARTIS: Cytotoxicity against human hepatocellular carcinoma cell line (Huh7); assay type: toxicity, cell-based, Huh-7; settings: Huh7 cells (hepatocellular carcinoma cell line)

SMILES | EC50 [1] | EC50 [2] | CC50 [3]
C=C[C@H]1CN2CC[C@H]1C[C@@H]2[C@@H](OC(=O)c1ccc(OC)cc1)c1ccnc2ccccc12 | 244 nM | 18.5 nM | 2610 nM
COC1C(OC2OC(C)C(O)C(C)(O)C2OC)c2c(cc3c(c2O)C(=O)c2c(ccc4c2OC2OC4(C)C(OC4CC(C)([N+](=O)[O-])C(OC5OC(C)C(O)C(C)(O)C5OC)C(C)O4)C(N(C)C)C2O)C3=O)CC1(C)O (centres undefined) | 131 nM | 70.1 nM | > 10000 nM
O=C(O)C1Cc2c([nH]c3ccccc23)C(c2ccc(Cl)cc2Cl)N1 (centres undefined) | 1020 nM | 688 nM | > 100000 nM
O=C(NCCCCCCCCCCNC(=O)Nc1ccc(C2=NCCCN2)cc1)Nc1ccc(C2=NCCCN2)cc1 | 54.2 nM | 69.3 nM | > 10000 nM
COc1ccc2nc(C)cc(Nc3cccc(O)c3)c2c1 | 228 nM | 347 nM | 51000 nM
CC(=O)c1cccc(S(=O)(=O)NCCCNc2nc3cc(C)cc(C)c3cc2C#N)c1 | 1150 nM | 698 nM | > 100000 nM
Cc1[nH]c2ccccc2c(=O)c1Br | 532 nM | 686 nM | > 100000 nM
COc1cc(C=NNc2nc3ccccc3[nH]2)ccc1O | 205 nM | 307 nM | 43100 nM
COC(=O)C1=C(C)NC2=C(C(=O)CC(c3ccc(OC)c(OC)c3)C2)C1c1ccc([N+](=O)[O-])cc1 (centres undefined) | 2680 nM | 704 nM | > 100000 nM
COc1ccc(Nc2nc(NN=Cc3cccc(F)c3)nc(Nc3ccc([N+](=O)[O-])cc3)n2)cc1 | 662 nM | 704 nM | > 100000 nM
CCCN1CCc2c(sc3nc(SCC(=O)OC)nc(N)c23)C1 | 1660 nM | 710 nM | > 100000 nM
CCN(CC)CCNC(=O)c1cc(-c2cc3ccccc3s2)cc(-n2cnnn2)c1 | 61.6 nM | 151 nM | 21300 nM
COc1cc2c(N3CCOCC3)cc(O)c(CC(=O)Nc3ccccc3)c2cc1OC | 626 nM | 712 nM | > 100000 nM
COc1ccc(-c2cn3c([n+]2-c2ccccc2)SCC3)cc1 | 582 nM | 709 nM | > 100000 nM
CN(C)CCCNC1=NC=NC2C=C(Cl)C=CC12 (centres undefined) | 290 nM | 713 nM | > 100000 nM
O=C(Nc1ccc(Cl)cc1)Nc1ccc(Br)cn1 | > 12500 nM | 712 nM | > 100000 nM
CCOC(=O)c1c(CNC)n(C)c2cc(Br)c(O)cc12 | 458 nM | 691 nM | > 100000 nM
Cc1ccc(C=NNC(=O)c2nnn(-c3nonc3N)c2-c2ccc([N+](=O)[O-])cc2)cc1 | 204 nM | 503 nM | > 73000 nM
C[N+](C)(CC#Cc1ccccc1)CC#Cc1ccccc1 | 1930 nM | 679 nM | > 100000 nM
CCC(C(=O)N1CCN(Cc2ccccc2)CC1)c1ccccc1 (centres undefined) | 6910 nM | 677 nM | > 100000 nM
CCCn1nc(Oc2nc(NCC)cc(OC)n2)ccc1=O | 384 nM | 677 nM | > 100000 nM
Cc1ccc(F)cc1NC(=O)Cn1c2ccccc2c(=O)c2cc(Cl)ccc21 | 1180 nM | 694 nM | > 100000 nM
c1ccc(CNc2nc(Nc3ccccc3)nc3ccccc23)cc1 | 158 nM | 93.4 nM | 13500 nM
CCOC(=O)c1ccc(N2CCN(c3cc(C)ccc3C)CC2)c(NC(=O)Nc2ccc(Cl)cc2)c1 | > 3540 nM | 691 nM | > 100000 nM
CCc1n(CC(=O)OC2CC(C)CCC2C(C)C)c2ccccc2[n+]1C (centres undefined) | 267 nM | 203 nM | 29900 nM
CCOc1ccc2[nH]c(=O)c(CN(CCCN3CCOCC3)C(=S)NCCCN(CC)CC)cc2c1 | 2610 nM | 679 nM | > 100000 nM
COc1ccc(CCNC(=S)Nc2ccccc2C)cc1OC | 1100 nM | 698 nM | > 100000 nM

SMILES | EC50 [1] | EC50 [2] | CC50 [3]
O=C(Cn1cc([N+](=O)[O-])nc1[N+](=O)[O-])N1CCN(c2ccc(F)cc2)CC1 | 1070 nM | 234 nM | 33600 nM
COc1cccc(-c2ccc(O)c(CN(C)C3CCCCC3)c2)n1 | 1150 nM | 90.3 nM | > 13000 nM
Cc1nc(N2CCN(c3ccccn3)CC2)c2c(C)c(C(=O)Nc3c(F)cccc3F)sc2n1 | 3140 nM | 694 nM | > 100000 nM
O=C(NC(=CC=Cc1ccccc1)C(=O)N1CCOCC1)c1ccc(Br)cc1 | > 10400 nM | 683 nM | > 100000 nM
CNc1ccccc1C(=O)N(C)CCc1ccccc1 | > 1250 nM | 68.3 nM | > 10000 nM
Oc1ccc(-c2ccccn2)cc1CNC1CCN(Cc2ccccc2)CC1 | 411 nM | 143 nM | 21000 nM
COc1ccc(N2C(=O)[C@@H]3C[C@H]2CN3C(=O)c2cccc(Cn3nc(C)cc3C)c2)cc1Cl | > 1250 nM | 26.7 nM | > 3800 nM
Cc1ccccc1-c1cccc(CN2CCCCC2CCn2cc(C(=O)NC3CC3)nn2)c1 (centres undefined) | 1470 nM | 685 nM | > 100000 nM
CC(=O)Nc1ccc(C2NC(=O)NC3=Nc4ccccc4SC(c4ccccc4)=C32)cc1 (centres undefined) | 1020 nM | 689 nM | > 100000 nM
COc1ccc(CNc2cc(-c3ccc(F)c(F)c3)nc3ccnn23)cc1 | 675 nM | 687 nM | > 100000 nM
Cc1nnc(Nc2ccc(F)cc2)c2ccccc12 | > 1250 nM | > 68.9 nM | > 10000 nM
Cc1cccc(N2C(=O)C3C(C2=O)C2(c4ccccc4)C(=O)C3(c3ccccc3)C(c3ccccc3)=C2c2ccccc2)c1 (centres undefined) | 1640 nM | 700 nM | > 100000 nM
Cc1ccc(-n2c(-c3ccccc3)cc(C=NNC(=O)c3cccc(-n4c(C)ccc4C)c3)c2-c2ccccc2)cc1 | 867 nM | 684 nM | > 100000 nM
c1ccc(CC[n+]2cc(-c3ccccc3)n3c2CCC3)cc1 | 660 nM | 684 nM | > 100000 nM
CN(C)c1cc[n+](CC(=O)c2cccs2)cc1 | 649 nM | 688 nM | > 100000 nM
CCOc1ccc(C(=O)C(CCC(C[N+]2(C)CCCCCC2)C(=O)c2ccc(OCC)cc2)C[N+]2(C)CCCCCC2)cc1 (centres undefined) | 615 nM | 693 nM | > 100000 nM
Cc1cc(C)[n+](C)n1CC(O)Cn1c2ccccc2c2ccccc21 (centres undefined) | 1220 nM | 691 nM | > 100000 nM
Fc1ccc(-c2cn3c([n+]2-c2ccccc2)SCC3)cc1 | 1090 nM | 713 nM | > 100000 nM
COc1ccc(Nc2nc(NN=Cc3cc4c(cc3Br)OCO4)nc(Nc3ccc([N+](=O)[O-])cc3)n2)cc1 | 460 nM | 684 nM | > 100000 nM
O=C1CN(C(=O)CCC2CCCC2)C(c2ccc(F)cc2)c2cc(Cl)ccc2N1 (centres undefined) | 231 nM | 180 nM | 26300 nM
CC(=O)Nc1nc(C)c(-c2csc(Nc3ccc(C)cc3)n2)s1 | 240 nM | 166 nM | 23600 nM
Cc1c(-c2ccccc2)c2ccccc2n1CCc1ccc(C)[n+](C)c1 | 647 nM | 690 nM | > 100000 nM
Cc1ccc(C[n+]2cc(-c3ccc(C)cc3)n3c2CCC3)cc1 | 538 nM | 240 nM | 34500 nM
COc1cccc(-c2ccc(O)c(CN3CCCC(C)C3)c2)n1 (centres undefined) | 543 nM | 67.9 nM | > 10000 nM
CCCCNC(=O)c1nn(-c2ccc(OC)cc2)c(=O)c2ccccc12 | 2250 nM | 680 nM | > 100000 nM
C[n+]1cccc(C=C2c3ccccc3-c3ncccc32)c1 | 173 nM | 678 nM | > 100000 nM
